Source: ChEMBL document CHEMBL1141990, “Effects of suberoylanilide hydroxamic acid and trichostatin A on induction of cytochrome P450 enzymes and benzo[a]pyrene DNA adduct formation in human cells” (2005)

Experiments:
Format in all cases: functional
MCF7 [1] = assay: Average fold change in expression of CYP1B1 after treatment with compound of concentration 1 mM in human MCF-7 cells
MCF7 [2] = assay: Average fold change in expression of CYP1A1 after treatment with compound of concentration 0.1 mM in human MCF-7 cells
MCF7 [3] = assay: Average fold change in expression of CYP1B1 after treatment with compound of concentration 0.1 mM in human MCF-7 cells
MCF7 [4] = assay: Average fold change in expression of CYP1A1 after treatment with compound of concentration 0.01 mM in human MCF-7 cells
MCF7 [5] = assay: Average fold change in expression of CYP1B1 after treatment with compound of concentration 0.01 mM in human MCF-7 cells
MCF7 [6] = assay: Average fold change in expression of CYP1A1 after treatment with compound of concentration 1 mM in human MCF-7 cells
MCF7 [7] = assay: Average fold change in expression of CYP1A1 after co-treatment with compound of concentration 1 mM in human MCF-7 cells
MCF7 [8] = assay: Average fold change in expression of CYP1B1 after co-treatment with compound of concentration 1 mM in human MCF-7 cells
MCF7 [9] = assay: Average fold change in expression of CYP1A1 at 1 mM after co-treatment with compound and TSA in human MCF-7 cells
MCF7 [10] = assay: Average fold change in expression of CYP1B1 at 1 mM after co-treatment with compound and TSA in human MCF-7 cells
MCF7 [11] = assay: Average fold change in expression of CYP1A1 at 1 mM after co-treatment with compound and SAHA in human MCF-7 cells
MCF7 [12] = assay: Average fold change in expression of CYP1B1 at 1 mM after co-treatment with compound and SAHA in human MCF-7 cells
MCF7 [13] = assay: Mean B[a]P DNA binding at 4 uM after co-treatment with compound and TSA (2 uM) in human MCF-7 cells
MCF7 [14] = assay: Mean B[a]P DNA binding at 4 uM after co-treatment with compound and SAHA (2 uM) in human MCF-7 cells
MCF7 [15] = assay: Mean B[a]P DNA binding at 4 uM in human MCF-7 cells

SMILES | Fold change (MCF7 [1]) | Fold change (MCF7 [2]) | Fold change (MCF7 [3]) | Fold change (MCF7 [4]) | Fold change (MCF7 [5]) | Fold change (MCF7 [6]) | Fold change (MCF7 [7]) | Fold change (MCF7 [8]) | Fold change (MCF7 [9]) | Fold change (MCF7 [10]) | Fold change (MCF7 [11]) | Fold change (MCF7 [12]) | Activity (MCF7 [13]) [pmol adducts/mg DNA] | Activity (MCF7 [14]) [pmol adducts/mg DNA] | Activity (MCF7 [15]) [pmol adducts/mg DNA]
CC(/C=C/C(=O)NO)=C\[C@@H](C)C(=O)c1ccc(N(C)C)cc1 [TRICHOSTATIN] | 0.17 | 0.81 | 1.57 | 0.77 | 1.29 | 3.1 |  |  |  |  |  |  |  |  | 
O=C(CCCCCCC(=O)Nc1ccccc1C(=O)NO)Nc1ccccc1 | 1.58 | 2.86 | 1.62 | 0.77 | 1.1 | 0.98 |  |  |  |  |  |  |  |  | 
c1ccc2c(c1)cc1ccc3cccc4ccc2c1c34 [BENZO[DEF]CHRYSENE] | 4.35 | 3.69 | 1.7 | 1.85 | 1.36 | 25.24 | 25.55 | 4.39 | 8.77 | 1.02 | 22.92 | 2.4 | 54.15 | 52.18 | 34.75
